Experimental data from paper PMC10178848, “Modulating fast skeletal muscle contraction protects skeletal muscle in animal models of Duchenne muscular dystrophy” (The Journal of Clinical Investigation, 2023).

Tested on: mdx mouse EDL muscle
Assay: Phosphoprotein array analysis (Cell Signaling Phospho Antibody Array)
Conditions: T vs C
Method: mdx mouse EDL muscle was prepared for ex vivo analysis as described (n = 5). Muscles were incubated for 1 hour with DMSO or EDG-5506 (5 μM) and then flash frozen in liquid nitrogen. Tissue preparation and analysis were performed as recommended by the manufacturer (Cell Signaling Phospho Antibody Array, Full Moon Biosystems).

Question: What does the source list for O=c1ccc(-c2cnc(OCC(F)(F)F)nc2)nn1Cc1cncc(F)c1 [EDG-5506]?
Answer: Fold Change between Samples T/C: Tau (Phospho-Ser396): 0.90; Fold Change between Samples T/C: VEGFR2 (Phospho-Tyr1175): 0.84; Fold Change between Samples T/C: Zap-70 (Phospho-Tyr319): 1.04; Fold Change between Samples T/C: c-Jun (Phospho-Ser73): 0.91; Fold Change between Samples T/C: p44/42 MAP Kinase (Phospho-Tyr204): 0.88; Fold Change between Samples T/C: p53 (Phospho-Ser15): 0.20; Ratio (T/C): 4E-BP1 (Phospho-Thr45) to total 4E-BP1 (Ab-45) (phospho/total): 0.8337; Ratio (T/C): 14-3-3 theta/tau (Phospho-Ser232) to total 14-3-3 zeta/delta (Ab-232) (phospho/total): 0.9814; Ratio (T/C): ACC1 (Phospho-Ser80) to total ACC1 (Ab-80) (phospho/total): 0.9544; Ratio (T/C): AKT1 (Phospho-Ser473) to total AKT1 (Ab-308) (phospho/total): 0.8575; Ratio (T/C): AKT1S1 (Phospho-Thr246) to total AKT1S1 (Ab-246) (phospho/total): 1.16; Ratio (T/C): AMPKbeta1 (Phospho-Ser182) to total AMPKbeta1 (Ab-182) (phospho/total): 0.902; Ratio (T/C): ASK1 (Phospho-Ser966) to total ASK1 (Ab-966) (phospho/total): 0.799; Ratio (T/C): ATF2 (Phospho-Ser62/44) to total ATF2 (Ab-62/44) (phospho/total): 0.3856; Ratio (T/C): Abl1 (Phospho-Thr754/735) to total Abl1 (Ab-754/735) (phospho/total): 1.124; Ratio (T/C): Actin Pan(a/b/g) (Phospho-Tyr55/53) to total Actin Pan(a/b/g) (Ab-55/53) (phospho/total): 0.9642; Ratio (T/C): B-RAF (Phospho-Ser446) to total B-RAF (Ab-598) (phospho/total): 0.9669; Ratio (T/C): BAX (Phospho-Thr167) to total Bax (phospho/total): 0.8854; Ratio (T/C): BCL-XL (Phospho-Ser62) to total BCL-XL (Ab-47) (phospho/total): 0.5743; Ratio (T/C): BID (Phospho-Ser78) to total BID (Ab-78) (phospho/total): 0.7661; Ratio (T/C): BLNK (Phospho-Tyr96) to total BLNK (Ab-96) (phospho/total): 0.53; Ratio (T/C): BRCA1 (Phospho-Ser1423) to total BRCA1 (Ab-1524) (phospho/total): 0.7749; Ratio (T/C): CDC25C (Phospho-Ser216) to total CDC25C (Ab-216) (phospho/total): 0.4323; Ratio (T/C): CDK1/CDC2 (Phospho-Tyr15) to total CDK1/CDC2 (Ab-15) (phospho/total): 0.7557; Ratio (T/C): CREB (Phospho-Ser133) to total CREB (Ab-133) (phospho/total): 1.041; Ratio (T/C): CaMK2-beta/gamma/delta (Phospho-Thr287) to total CaMK2-beta/gamma/delta (Ab-287) (phospho/total): 0.6524; Ratio (T/C): CaMK2A (Phospho-Thr286) to total CaMK2A (Ab-286) (phospho/total): 0.848; Ratio (T/C): Caspase 1 (Phospho-Ser376) to total Caspase 1 (Ab-376) (phospho/total): 0.6605; Ratio (T/C): Caspase 8 (Phospho-Ser347) to total Caspase 8 (Ab-347) (phospho/total): 1.051; Ratio (T/C): Caspase 9 (Phospho-Ser196) to total Caspase 9 (Ab-196) (phospho/total): 0.4054; Ratio (T/C): Catalase (Phospho-Tyr385) to total Catalase (Ab-385) (phospho/total): 0.7422; Ratio (T/C): Catenin beta (Phospho-Thr41/Ser45) to total Catenin beta (Ab-37) (phospho/total): 0.6858; Ratio (T/C): Chk1 (Phospho-Ser286) to total Chk1 (Ab-286) (phospho/total): 0.7615; Ratio (T/C): Chk2 (Phospho-Thr68) to total Chk2 (Ab-68) (phospho/total): 0.4403; Ratio (T/C): CrkII (Phospho-Tyr221) to total CrkII (Ab-221) (phospho/total): 0.7162; Ratio (T/C): Cyclin D1 (Phospho-Thr286) to total Cyclin D1 (Ab-286) (phospho/total): 1.068; Ratio (T/C): Cyclin E1 (Phospho-Thr77) to total Cyclin E1 (Ab-77) (phospho/total): 0.8189; Ratio (T/C): DARPP-32 (Phospho-Thr34) to total DARPP-32 (Ab-34) (phospho/total): 0.8988; Ratio (T/C): EEF2 (Phospho-Thr56) to total EEF2 (Ab-56) (phospho/total): 1.324; Ratio (T/C): EGFR (Phospho-Tyr869) to total EGFR (Ab-1172) (phospho/total): 1.314; Ratio (T/C): EGFR (Phospho-Tyr1172) to total EGFR (Ab-1172) (phospho/total): 0.9484; Ratio (T/C): Elk1 (Phospho-Ser383) to total Elk1 (Ab-389) (phospho/total): 0.8083; Ratio (T/C): FAK (Phospho-Ser910) to total FAK (Ab-910) (phospho/total): 0.6171; Ratio (T/C): FGFR1 (Phospho-Tyr654) to total FGFR1 (Ab-766) (phospho/total): 1.2323; Ratio (T/C): FKHRL1/FOXO3A (Phospho-Ser253) to total FKHRL1/FOXO3A (Ab-253) (phospho/total): 0.5092; Ratio (T/C): FOXO1/3/4-pan (Phospho-Thr24/32) to total FOXO1/3/4-pan (Ab-24/32) (phospho/total): 0.8412; Ratio (T/C): GRK2 (Phospho-Ser29) to total GRK2 (Ab-29) (phospho/total): 0.6549; Ratio (T/C): GSK3 beta (Phospho-Ser9) to total GSK3 beta (phospho/total): 0.6837; Ratio (T/C): HDAC1 (Phospho-Ser421) to total HDAC1 (Ab-421) (phospho/total): 1.576; Ratio (T/C): HDAC2 (Phospho-Ser394) to total HDAC2 (Ab-394) (phospho/total): 0.8716; Ratio (T/C): HER2 (Phospho-Tyr1221/Tyr1222) to total HER2 (Ab-1221/1222) (phospho/total): 0.7289; Ratio (T/C): HER2 (Phospho-Tyr1248) to total HER2 (Ab-1221/1222) (phospho/total): 0.9858; Ratio (T/C): HSP27 (Phospho-Ser82) to total HSP27 (Ab-82) (phospho/total): 1.177; Ratio (T/C): HSP90B (Phospho-Ser226) to total HSP90B (Ab-254) (phospho/total): 0.9521; Ratio (T/C): IKK alpha/beta (Phospho-Ser180/181) to total IKK alpha/beta (Ab-180/181) (phospho/total): 0.9407; Ratio (T/C): IKK-beta (Phospho-Tyr188) to total IKK-beta (Ab-199) (phospho/total): 0.6267; Ratio (T/C): IKK-beta (Phospho-Tyr199) to total IKK-beta (Ab-199) (phospho/total): 0.8262; Ratio (T/C): IKK-gamma (Phospho-Ser31) to total IKK-gamma (Ab-31) (phospho/total): 1.02; Ratio (T/C): IL-4R/CD124 (Phospho-Tyr497) to total IL-4R/CD124 (Ab-497) (phospho/total): 0.9976; Ratio (T/C): IL-10R-alpha (Phospho-Tyr496) to total IL-10R-alpha (Ab-496) (phospho/total): 0.6514; Ratio (T/C): IRS-1 (Phospho-Ser312) to total IRS-1 (Ab-312) (phospho/total): 0.9305; Ratio (T/C): IkB-alpha (Phospho-Ser32/36) to total IkB-alpha (Ab-32/36) (phospho/total): 1.258; Ratio (T/C): IkB-epsilon (Phospho-Ser22) to total IkB-epsilon (Ab-22) (phospho/total): 0.98
